Consider eleven molecules from patent US8329413B2, “Glycoproteomic probes for fluorescent imaging of fucosylated glycans in vivo” (Academia Sinica, priority 2007, dated 2012).

Where a name gives a salt, the structure may show the parent alone.

For series [1] the following is noted: cited from earlier work.
Series [2] deals with human alpha1-acid glycoprotein (AGP). Description: Fluorescent labeling of AGP fucosylated by FucT V, SDS/PAGE visualized by UV light. Format: biochemical. As to conditions: AGP fucosylated with FucT V and GDP-fucose analog 8, 9 or 10, then labeled with 1a or 1b. The text has this:
Briefly, fucose analogs 4 and 5 are converted to the corresponding 1-bromides, which then are substituted directly by a phosphate group. […] Therefore, TiBr4 is used instead, as described by Srivastava. The fucose-1-phosphates are converted to the corresponding GDP-fucose analogs by using 1H-tetrazole as a catalyst. The tolerability of GDP-fucose analogs 8 and 9 for human alpha-1,3-fucosyltranseferases (FucTs) II-VII is confirmed by using a standard microtiter plate assay. They are then used to elaborate the glycoconjugate substrate, human alpha1-acid glycoprotein (AGP), an acute-phase protein. As fucosylation of AGP is associated with inflammatory diseases, the degree of fucosylation of AGP could be a potential diagnostic or prognostic marker. AGP was fucosylated by using FucT V in the presence of GDP-fucose analogs 8 or 9. After gel filtration, the fucosylated AGP is labeled by using the corresponding naphthalimide 1a or 1b for 4 h at room temperature. Labeled protein is analyzed by SDS/PAGE and visualized by UV light (365 nm). […] Treated protein was separated by SDS/PAGE and visualized by UV light (Top) and Coomassie blue staining (CBB) (Middle). (Bottom) Modified GDP-fucose.
Human alpha1-acid glycoprotein (0.33 mg/mL), pretreated with alpha-fucosidase, was incubated with human alpha-1,3-fucosyltransferase V (100 mU/mL) in MOPS buffer (50 mM, pH 7.2) containing 150 mM NaCl, 10 mM MnCl2, 4 mM ATP, 0.2 mM GDP-fucose analog (8-10). After incubation at 37° C. for 8 h, additional GDP-fucose derivative (final 0.4 mM) was added and the reaction mixture was incubated at 37° C. for 12 h. […]
The fucosylated glycoconjugate was dissolved in HEPES buffer (50 mM, pH 7.6), and added to a solution containing CuSO4 (0.2 mM), 1.0 mM sodium ascorbate, the tris(triazolyl)amine ligand (20) (0.2 mM, stock in DMSO), and the appropriate naphthalimide ligation probe 1a or 1b (0.1 mM, stock in DMSO, final concentration of DMSO; 10%)). After 1 h at room temperature, the mixture was passed through NAP-5 column in water and lyophilized, and analyzed by SDS-PAGE.

Series [3] concerns Hep 3B. Description: Fluorescence microscopy imaging of intracellular fucosylated glycoconjugates. The class given is cell-based, human. The protocol:
The human hepatoma cell line, Hep 3B, was incubated with acetylated azidofucose 12. After 3 days, the cells were fixed, washed with PBS, and then stained with 1a for visualization. […] The labeling reaction was performed in the presence of Cu(I) after the treatment with control fucose (A) or azidofucose 12 (B), or in the absence of Cu(I) after the treatment with control fucose (C) or azidofucose 12 (D). (Scale bar: 20 μm.)
In another aspect of the disclosure, double-staining experiments were performed to find out whether the punctate pattern observed from azidofucose marks specific cellular compartments. […] Azidofucose treated cells were fixed and labeled with probe 1a and then further treated with WGA lectin conjugated with Alexa Fluor 594, and the cells were imaged with confocal fluorescence microscope, using the appropriate filter sets. […] (Scale bar: 20 μm.)
The human hepatocellular carcinoma cell line, Hep3B (American Type Culture Collection, Manassas, Va.), was cultured in Opti-MEM (Invitrogen) supplemented with 0.1% FCS and treated with natural fucose or peracetylated azidofucose 12 (200 μM) for 3 days. The cells then were transferred to a coverslip glass slide and cultured overnight in the same medium. […] After labeling, cells were washed with PBS, and fluorescence images were obtained by using Axiovert 200M (Carl Zeiss, Inc., Thornwood, N.Y.). […]

In series [4] the test system is Jurkat cells. Description: Fluorescent labeling at the cell surface by flow cytometry. Format: cell-based. The source says: In another aspect, the disclosure provides a method of labeling of azide-tagged glycoconjugates expressed on the cell surface by using the alkyne click-activated fluorogenic probe 1a. First, the effect of various Cu(I) sources on the copper-catalyzed cell-surface labeling reaction was investigated. Cu(I) is typically generated including in situ by the reduction of Cu(II) by conventional reducing agents or the direct addition of Cu(I) as a salt. To label azido tagged glycoconjugates (in this case, cellular glycans that had incorporated azidofucose), we investigated both methods by using in situ Cu(II) reduction with ascorbic acid and Tris(carboxyethyl)phosphine (TCEP) and direct addition of Cu(I), via CuBr, in CuAAC reactions. Jurkat cells were cultured in the presence of globally acetylated 6-azido-L-fucose 12 (acetylation increases cellular uptake of the sugar) so that they will incorporate the analog via the salvage pathway. After incubating for 3 days, the cells were labeled with 1a in the presence of the above listed Cu(I) sources, and the fluorescent intensities were measured by flow cytometry. […]
Jurkat cells were cultured in RPMI medium 1640 (Invitrogen, Carlsbad, Calif.), supplemented with 10% FCS and peracetylated fucose 11 or azidofucose 12 (200 μM) at a density of 2×10^5 cells per ml for 3 days, in the presence or absence of tunicamycin (5 μg/ml). […] The fluorescence intensity was detected and acquired by BD LSR II (BD Biosciences, San Jose, Calif.) and FACSDiva software (BD Biosciences). […] For detection of the fluorescent adduct with probe 1a, a 351-nm UV laser was used for excitation, and emission was detected by a 440/40 band-pass filter.
Jurkat cells were cultured in RPMI 1640 (Invitrogen, Carlsbad, Calif.) supplemented with 10% FCS and peracetylated fucose 11 or azidofucose 12 ([…]) at the density of 2×10^5 cells/mL for 3 days, in the presence or absence of tunicamycin ([…]). […] The fluorescence intensity was detected and acquired by BD LSR II (BD Biosciences, San Jose, Calif.) and FACSDiva software (BD Biosciences). […]
A general note: Flow cytometry measures light scatter and fluorescence of single cells or particles in a stream.

Series [5] can be described thus: Rapid screening of L-amino acids as cycloaddition ligand catalysts using fluorogenic probe 1a. As to conditions: L-amino acid 1.0 mM, CuSO4 1.0 mM, 1a + 2a; for enhancement of cycloaddition rates: 24 h room temperature. The protocol: A fluorescence quenching technique was used to identify catalysts for the copper-catalyzed cycloaddition. […] In such a screen, the reaction between 1a and 2a is performed in microtiter plates in the presence of individual amino acids. […] (Upper) The microtiter plate was visualized under long wavelength UV lamp (365 nm). (Lower) The fluorescent intensities of each well are measured by a fluorescence plate reader.
The effect of the ligand effect on the reaction rate was visualized by holding the 96-well microtiter plate under a long wavelength UV lamp (365 nm) and analyzed with a standard fluorescence multiplate reader.
The overall volume in each vial was 250 microliters containing a solution of 1,8-naphthalimide 1a (0.5 mM), azidofucose 2a (1.0 mM), CuSO4 (1.0 mM), L-amino acid (1.0 mM) and sodium ascorbate (5.0 mM) in DMSO/water (56% DMSO). The reactions were allowed to stand at room temperature for 24 hours. The reaction mixture was diluted 60 times with 50 mM HEPES buffer (pH 7.2) and then transferred to 96-well microtiter plate, and fluorescence intensity (excitation, 365 nm; emission, […]) was determined with a Fusion plate reader (Perkin Elmer/Packard).

Regarding `Nc1ccc2c3c(cccc13)C(=O)NC2=O` [4-amino-1,8-naphthalimide], in series [1] (long wavelength emission, basis of probe design), the “emission λmax” value was 540-550 nm.
For `C#Cc1ccc2c3c(cccc13)C(=O)N(CC)C2=O` [Compound 1a, 4-Ethynyl-N-ethyl-1,8-naphthalimide], the “fluorescent band of labeled AGP on SDS/PAGE under UV light (365 nm)” value in series [2] is reported as “clear fluorescent bands”.
Same read-out and setting: then `C[C@@H]1O[C@H](OP(=O)(O)OP(=O)(O)OC[C@H]2O[C@@H](n3cnc4c(=O)[nH]c(N)nc43)[C@H](O)[C@@H]2O)[C@@H](O)[C@H](O)[C@@H]1O` [Compound 10, GDP-fucose], with “No band was present”.
Turning to `CC(=O)OC1O[C@@H](CN=[N+]=[N-])[C@@H](OC(C)=O)[C@@H](OC(C)=O)[C@@H]1OC(C)=O` (some centres unmarked) [Compound 12], in series [3] (Hep 3B, 3 days, fixed cells, Cu(I)), the “labeling pattern after staining with 1a vs control fucose” value is listed as “distinct punctate-labeling pattern”. Further, in series [3] (fixed cells labeled with probe 1a, confocal microscopy), the “co-localization with Alexa Fluor 594-conjugated WGA lectin (Golgi marker)” value is “overlapped perfectly”. The “cell fluorescence after CuAAC labeling with 1a vs natural fucose” value in series [4] (Jurkat cells, 3 days, all three copper sources, flow cytometry) was “distinct increase in fluorescence”. In series [4] (Jurkat cells, flow cytometry), the “fluorescent signal after labeling with biotinylated alkyne 13 and avidin-fluorescein vs fucose” value was “distinct increase in fluorescent signal”.
For `C=C[C@H]1C[N@@]2CC[C@H]1C[C@H]2[C@H](O)c1ccnc2ccc(OC)cc12` [Quinine sulfate], the “quantum yield of fluorescent standard” value in series [1] (standard value) is reported as 0.54.
Regarding `N[C@@H](CS)C(=O)O` [cysteine], the “effect on cycloaddition reaction” value in series [5] is given as “obstructive to the reaction”.
The same measure, in the same setting: the result for `N[C@@H](CCC(=O)O)C(=O)O` [glutamic acid] reads “obstructive to the reaction”.
Still for that read-out and setting: then `NCCCC[C@H](N)C(=O)O` [lysine], with “obstructive to the reaction”.
For the molecule `N[C@@H](Cc1c[nH]c2ccccc12)C(=O)O` [tryptophan], in series [5], the “enhancement of cycloaddition rates” value is listed as “approximately 2 fold”.
Turning to `N[C@@H](Cc1ccc(O)cc1)C(=O)O` [tyrosine], in series [5], the “enhancement of cycloaddition rates” value was “approximately 2 fold”.
Regarding tunicamycin, the “effect on cell surface fluorescence” value in series [4] (Jurkat cells co-treated with azidofucose, labeled with 1a) is given as “suppressed cell surface fluorescence”.
